Experimental data published in PubChem BioAssay AID1963836 (Molecular Pharmacology Branch, DTP, NCI, 2024).
pIC50: −log10 of the molar value.

System: 857933-349-R-J2-PDC complex spheroid viability
Assay: Anticancer human tumor 857933-349-R-J2-PDC patient-derived colon adenocarcinoma cell line growth inhibition [POLQ]
Settings: for pIC50: curve of first compound; for viability, T/C: stronger effect = lower value
Procedure, shortened: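 Complex spheroid viability model combining PDC tumour cells with endothelial (HUVEC) and MSC stromal cells. Novobiocin, ART-558 or RP6685 were tested singly and in combination with standard and investigational anticancer drugs. Each was titrated in half-log steps from near clinical Cmax, or from 10 microM where Cmax was unknown.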

[1] = second compound 0.0316 µM, first compound 0.0316 µM
[2] = second compound 0.0316 µM, first compound 0.1 µM
[3] = second compound 0.1 µM, first compound 0.0316 µM
[4] = second compound 0.1 µM, first compound 0.1 µM
[5] = second compound 0.316 µM, first compound 0.0316 µM
[6] = second compound 0.316 µM, first compound 0.1 µM
[7] = second compound 1 µM, first compound 0.0316 µM
[8] = second compound 1 µM, first compound 0.1 µM
[9] = second compound 3.16 µM, first compound 0.0316 µM
[10] = second compound 3.16 µM, first compound 0.1 µM
[11] = second compound 10 µM, first compound 0.0316 µM
[12] = second compound 10 µM, first compound 0.1 µM
[13] = second compound 0.0316 µM, first compound 0.316 µM
[14] = second compound 0.0316 µM, first compound 1 µM
[15] = second compound 0.0316 µM, first compound 3.16 µM
[16] = second compound 0.0316 µM, first compound 10 µM
[17] = second compound 0.1 µM, first compound 0.316 µM
[18] = second compound 0.1 µM, first compound 1 µM
[19] = second compound 0.1 µM, first compound 3.16 µM
[20] = second compound 0.1 µM, first compound 10 µM
[21] = second compound 0.316 µM, first compound 0.316 µM
[22] = second compound 0.316 µM, first compound 1 µM
[23] = second compound 0.316 µM, first compound 3.16 µM
[24] = second compound 0.316 µM, first compound 10 µM
[25] = second compound 1 µM, first compound 0.316 µM
[26] = second compound 1 µM, first compound 1 µM
[27] = second compound 1 µM, first compound 3.16 µM
[28] = second compound 1 µM, first compound 10 µM
[29] = second compound 3.16 µM, first compound 0.316 µM
[30] = second compound 3.16 µM, first compound 1 µM
[31] = second compound 3.16 µM, first compound 3.16 µM
[32] = second compound 3.16 µM, first compound 10 µM
[33] = second compound 10 µM, first compound 0.316 µM
[34] = second compound 10 µM, first compound 1 µM
[35] = second compound 10 µM, first compound 3.16 µM
[36] = second compound 10 µM, first compound 10 µM
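Note: spheroids exposed to compounds for seven days before readout.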

## Cn1ncnc1[C@H]1c2n[nH]c(=O)c3cc(F)cc(c23)N[C@@H]1c1ccc(F)cc1 + COC1C(OC(N)=O)C(O)C(Oc2ccc3c(O)c(NC(=O)c4ccc(O)c(CC=C(C)C)c4)c(=O)oc3c2C)OC1(C)C
Second compound 0.0316 µM
  pIC50: < 7.00
Second compound 0.1 µM
  pIC50: < 7.00
Second compound 0.316 µM
  pIC50: < 7.00
Second compound 1 µM
  pIC50: < 7.00
Second compound 3.16 µM
  pIC50: < 7.00
Second compound 10 µM
  pIC50: < 7.00
Second compound 0.0316 µM, first compound 0.000316 µM
  viability, T/C: 76.1%
Second compound 0.0316 µM, first compound 0.001 µM
  viability, T/C: 95.3%
Second compound 0.0316 µM, first compound 0.00316 µM
  viability, T/C: 77.6%
Second compound 0.0316 µM, first compound 0.01 µM
  viability, T/C: 92.6%
[1]
  viability, T/C: 90.5%
[2]
  viability, T/C: 100%
Second compound 0.1 µM, first compound 0.000316 µM
  viability, T/C: 106%
Second compound 0.1 µM, first compound 0.001 µM
  viability, T/C: 88.8%
Second compound 0.1 µM, first compound 0.00316 µM
  viability, T/C: 102%
Second compound 0.1 µM, first compound 0.01 µM
  viability, T/C: 96.2%
[3]
  viability, T/C: 96%
[4]
  viability, T/C: 84.7%
Second compound 0.316 µM, first compound 0.000316 µM
  viability, T/C: 89.2%
Second compound 0.316 µM, first compound 0.001 µM
  viability, T/C: 98.7%
Second compound 0.316 µM, first compound 0.00316 µM
  viability, T/C: 98.9%
Second compound 0.316 µM, first compound 0.01 µM
  viability, T/C: 77.8%
[5]
  viability, T/C: 93.1%
[6]
  viability, T/C: 88.4%
Second compound 1 µM, first compound 0.000316 µM
  viability, T/C: 75.9%
Second compound 1 µM, first compound 0.001 µM
  viability, T/C: 93.4%
Second compound 1 µM, first compound 0.00316 µM
  viability, T/C: 76.4%
Second compound 1 µM, first compound 0.01 µM
  viability, T/C: 77.8%
[7]
  viability, T/C: 97.7%
[8]
  viability, T/C: 107%
Second compound 3.16 µM, first compound 0.000316 µM
  viability, T/C: 78.6%
Second compound 3.16 µM, first compound 0.001 µM
  viability, T/C: 100%
Second compound 3.16 µM, first compound 0.00316 µM
  viability, T/C: 95.3%
Second compound 3.16 µM, first compound 0.01 µM
  viability, T/C: 92.8%
[9]
  viability, T/C: 87.8%
[10]
  viability, T/C: 77.7%
Second compound 10 µM, first compound 0.000316 µM
  viability, T/C: 60.5%
Second compound 10 µM, first compound 0.001 µM
  viability, T/C: 94.8%
Second compound 10 µM, first compound 0.00316 µM
  viability, T/C: 101%
Second compound 10 µM, first compound 0.01 µM
  viability, T/C: 76.2%
[11]
  viability, T/C: 94%
[12]
  viability, T/C: 103%

## CCc1cc2c(N3CCc4c(cc(Cn5ccnc5)cc4-c4cn(C)nc4C(F)(F)F)C3=O)ccnc2c(OC)n1 + Cc1cccc(N(C)C(=O)C2C(O)CCN2c2nc(C)cc(C(F)(F)F)c2C#N)c1
Second compound 0.0316 µM
  pIC50: < 5.00
Second compound 0.1 µM
  pIC50: < 5.00
Second compound 0.316 µM
  pIC50: < 5.00
Second compound 1 µM
  pIC50: < 5.00
Second compound 3.16 µM
  pIC50: < 5.00
Second compound 10 µM
  pIC50: < 5.00
[1]
  viability, T/C: 104%
[2]
  viability, T/C: 91%
[13]
  viability, T/C: 94.5%
[14]
  viability, T/C: 82%
[15]
  viability, T/C: 77.7%
[16]
  viability, T/C: 63.1%
[3]
  viability, T/C: 91.6%
[4]
  viability, T/C: 92.8%
[17]
  viability, T/C: 75.9%
[18]
  viability, T/C: 79.5%
[19]
  viability, T/C: 77%
[20]
  viability, T/C: 54.8%
[5]
  viability, T/C: 96.5%
[6]
  viability, T/C: 100%
[21]
  viability, T/C: 92.4%
[22]
  viability, T/C: 97.8%
[23]
  viability, T/C: 79.7%
[24]
  viability, T/C: 61.1%
[7]
  viability, T/C: 122%
[8]
  viability, T/C: 103%
[25]
  viability, T/C: 93.1%
[26]
  viability, T/C: 83.3%
[27]
  viability, T/C: 82.5%
[28]
  viability, T/C: 72.3%
[9]
  viability, T/C: 97.8%
[10]
  viability, T/C: 80.1%
[29]
  viability, T/C: 83%
[30]
  viability, T/C: 88.7%
[31]
  viability, T/C: 79.2%
[32]
  viability, T/C: 84.8%
[11]
  viability, T/C: 96.3%
[12]
  viability, T/C: 96.3%
[33]
  viability, T/C: 80.1%
[34]
  viability, T/C: 73.6%
[35]
  viability, T/C: 76.3%
[36]
  viability, T/C: 61.9%

## O=c1[nH]cc(F)c(=O)[nH]1 + Cc1cccc(N(C)C(=O)C2C(O)CCN2c2nc(C)cc(C(F)(F)F)c2C#N)c1
Second compound 0.0316 µM
  pIC50: 5.61
Second compound 0.1 µM
  pIC50: 5.51
Second compound 0.316 µM
  pIC50: 5.51
Second compound 1 µM
  pIC50: 5.48
Second compound 3.16 µM
  pIC50: 5.53
Second compound 10 µM
  pIC50: 5.68
[1]
  viability, T/C: 90.7%
[2]
  viability, T/C: 85.8%
[13]
  viability, T/C: 95.5%
[14]
  viability, T/C: 77.8%
[15]
  viability, T/C: 42.6%
[16]
  viability, T/C: 29.5%
[3]
  viability, T/C: 123%
[4]
  viability, T/C: 109%
[17]
  viability, T/C: 106%
[18]
  viability, T/C: 74.9%
[19]
  viability, T/C: 50%
[20]
  viability, T/C: 30%
[5]
  viability, T/C: 102%
[6]
  viability, T/C: 105%
[21]
  viability, T/C: 80.3%
[22]
  viability, T/C: 82%
[23]
  viability, T/C: 43.9%
[24]
  viability, T/C: 34.8%
[7]
  viability, T/C: 94.3%
[8]
  viability, T/C: 95.3%
[25]
  viability, T/C: 77.4%
[26]
  viability, T/C: 85.8%
[27]
  viability, T/C: 50.7%
[28]
  viability, T/C: 30.6%
[9]
  viability, T/C: 93.8%
[10]
  viability, T/C: 92.6%
[29]
  viability, T/C: 85.8%
[30]
  viability, T/C: 69.7%
[31]
  viability, T/C: 49.1%
[32]
  viability, T/C: 27.6%
[11]
  viability, T/C: 90.8%
[12]
  viability, T/C: 122%
[33]
  viability, T/C: 99.2%
[34]
  viability, T/C: 68.9%
[35]
  viability, T/C: 41.9%
[36]
  viability, T/C: 29.3%
